Assay results: patent publication US20250000998A1, “MEDICAMENT FOR KILLING TUMOR CELLS” (PhotoQ3 Inc., priority 2021, published 2025)

Test system: A549 (human lung cancer cell) xenograft
Assay: Tumor regression effect in tumor-bearing mice by iTAP treatment (A549 cell line xenograft mouse)
Type: in vivo, BALB/c Slc-nu/nu mice
Details: Laserphyrin 5 mg/kg with 664 nm laser light 30 J/cm^2, IT-Cetuximab 3 mg/kg, alone or combined
Description: Separately cultured A549 cells were adjusted to 1×10^7 cells/100 μL, and the cells were subcutaneously administered (SC) to the right thigh of 7-week-old male BALB/c Slc-nu/nu mice, and xenograft mice (tumor-bearing mice) were produced. Tumor size was calculated using the following formula.
Tumor volume (mm^3)=major axis (mm)×minor axis (mm)×minor axis (mm)×0.5
When the tumor size of the mice reached an average size of approximately 150 mm^3, the mice were randomly divided into the following groups (n=3). • Condition (1) Control group: No administration • Condition (2) Laserphyrin (5 mg/kg) administration and 664 nm laser light (30 J/cm^2) • irradiation group • Condition (3) IT-Cetuximab (3 mg/kg) administration group • Condition (4) Laserphyrin (5 mg/kg), IT-Cetuximab (3 mg/kg) administration and 664 nm laser light (30 J/cm^2) irradiation group
IT-Cetuximab was administered intraperitoneally to mice, and 2 days later, Laserphyrin was administered through the tail vein. Furthermore, 2 hours after the administration of Laserphyrin, the tumor site was locally irradiated with a 664 nm laser light.
Tumor size was measured every 3 to 5 days after administration.

Question: Which “macroscopic observation of the tumor” value does the source give for C=Cc1c(C)c2cc3nc(c(CC(=O)N[C@@H](CC(=O)O)C(=O)O)c4[nH]c(cc5nc(cc1[nH]2)C(C)=C5CC)c(C)c4C(=O)O)[C@@H](CCC(=O)O)[C@@H]3C [Laserphyrin, Talaporfin Sodium] here?
Answer: tumor growth was confirmed macroscopically
